Laboratory results taken from paper PMC9638991, “Designed High-Redox Potential Laccases Exhibit High Functional Diversity” (ACS Catalysis, 2022).

How the values were obtained:
Test in all cases: colorimetric oxidation kinetics, purified enzyme
Type in all cases: biochemical
Th3 [1] = molecular target: T1, Th3 (Trametes hirsuta, UniProt B2L9C1, N227E/S448D, form not given); details: optimal pH, O2 as co-substrate
T1 construct: gene Lac; secreted from S. cerevisiae (pJRoC30), purified fraction, about 56 kDa; wild type not expressible
T1 sequence (B2L9C1 entry or part of it N227E/S448D, form open): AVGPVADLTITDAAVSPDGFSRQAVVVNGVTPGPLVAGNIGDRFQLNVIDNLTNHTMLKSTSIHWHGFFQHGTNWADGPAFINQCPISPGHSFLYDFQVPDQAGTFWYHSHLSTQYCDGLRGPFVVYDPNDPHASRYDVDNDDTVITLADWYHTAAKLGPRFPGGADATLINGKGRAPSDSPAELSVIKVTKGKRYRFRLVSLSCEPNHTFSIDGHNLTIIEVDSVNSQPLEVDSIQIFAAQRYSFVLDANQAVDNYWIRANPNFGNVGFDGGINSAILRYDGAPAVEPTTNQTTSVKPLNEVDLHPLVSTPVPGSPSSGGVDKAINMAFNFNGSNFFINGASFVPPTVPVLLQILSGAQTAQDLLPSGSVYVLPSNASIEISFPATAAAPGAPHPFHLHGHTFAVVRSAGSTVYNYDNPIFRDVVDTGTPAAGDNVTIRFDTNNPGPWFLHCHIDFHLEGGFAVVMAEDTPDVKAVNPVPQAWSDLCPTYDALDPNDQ

Th3 [2] = molecular target: T2, Th3 (Trametes hirsuta, UniProt B2L9C1); details: optimal pH 4, O2 as co-substrate
T2 construct: gene Lac; secreted from S. cerevisiae (pJRoC30), purified fraction, about 56 kDa; wild type not expressible
T2 sequence (B2L9C1 entry or part of it): as the sequence (B2L9C1 entry or part of it N227E/S448D, form open) above, with E206N, D427S counted along it

OB-1 = molecular target: T3, OB-1 (basidiomycete PM1, UniProt Q12571); details: optimal pH; O2 as co-substrate
T3 construct: S. cerevisiae expression, purified
T3 sequence (Q12571 entry or part of it): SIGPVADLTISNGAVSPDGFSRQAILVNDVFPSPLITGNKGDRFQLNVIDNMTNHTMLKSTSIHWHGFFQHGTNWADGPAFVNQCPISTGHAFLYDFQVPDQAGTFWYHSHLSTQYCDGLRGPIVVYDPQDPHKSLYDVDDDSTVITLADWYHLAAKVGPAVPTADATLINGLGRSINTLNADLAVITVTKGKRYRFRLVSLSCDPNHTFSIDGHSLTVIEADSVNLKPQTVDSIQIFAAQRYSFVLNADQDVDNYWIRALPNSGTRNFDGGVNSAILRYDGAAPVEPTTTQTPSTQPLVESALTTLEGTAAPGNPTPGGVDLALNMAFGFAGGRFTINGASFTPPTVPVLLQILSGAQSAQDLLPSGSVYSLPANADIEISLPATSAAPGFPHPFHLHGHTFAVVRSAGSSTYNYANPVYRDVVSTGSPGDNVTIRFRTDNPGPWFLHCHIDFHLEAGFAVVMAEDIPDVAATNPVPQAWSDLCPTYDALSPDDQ

Th3 [3] = molecular target: T4, Th3 (Trametes hirsuta, UniProt B2L9C1, N227H/F478W, form not given); details: optimal pH; O2 as co-substrate
T4 construct: gene Lac; secreted from S. cerevisiae (pJRoC30), purified fraction, about 56 kDa; wild type not expressible
T4 sequence (B2L9C1 entry or part of it N227H/F478W, form open): as the sequence (B2L9C1 entry or part of it N227E/S448D, form open) above, with E206H, D427S, F457W counted along it

Th3 [4] = molecular target: T5, Th3 (Trametes hirsuta, UniProt B2L9C1, F286M/A414S, form not given); details: optimal pH 5; O2 as co-substrate
T5 construct: gene Lac
T5 sequence (B2L9C1 entry or part of it F286M/A414S, form open): as the sequence (B2L9C1 entry or part of it N227E/S448D, form open) above, with E206N, F265M, A393S, D427S counted along it

[5] = text prints 'for Th3.7' inside a sentence on Th3.10 (apparent misprint, check Table S4)

COc1cccc(OC)c1O [DMP, 2,6-dimethoxyphenol]
Km (Th3 [1]; [5]): 17.1 µM | Km (Th3 [2]; purified fraction, values estimates): 1280 µM | Km (OB-1): 165 ± 2 µM | Km (Th3 [3]): 44 µM

COc1ccccc1O [GUA, guaiacol]
Km (Th3 [1]): 667 ± 36 µM | Km (Th3 [2]): 1790 ± 160 µM | Km (OB-1): 1070 ± 30 µM | Km (Th3 [4]): 555 ± 85 µM

COc1cc(/C=C/C(=O)O)cc(OC)c1O [SA, sinapic acid]
Km (Th3 [1]; [5]): 150 µM | Km (OB-1): 81 ± 15 µM | Km (Th3 [3]): 185 µM
